Source: the kinase profiling compilation of Christmann-Franck et al. (2016)

Columns and labels:
Assay in all cases: KINOMEscan competition binding
Settings in all cases: compound 1.0 µM
CDKL3 (human) = CDKL3 (human) (UniProt Q8IVW4)
BMX (human) = BMX (human) (UniProt P51813)
TNIK (human) = TNIK (human) (UniProt Q9UKE5)
DAPK2 (human) = DAPK2 (human) (UniProt Q9UIK4)
STK35 (human) = STK35 (human) (UniProt Q8TDR2)
CSNK1G1 (human) = CSNK1G1 (human) (UniProt Q9HCP0)
ERBB4 (human) = ERBB4 (human) (UniProt Q15303)
ERBB4 (human), sequence (Q15303 whole entry, looked up): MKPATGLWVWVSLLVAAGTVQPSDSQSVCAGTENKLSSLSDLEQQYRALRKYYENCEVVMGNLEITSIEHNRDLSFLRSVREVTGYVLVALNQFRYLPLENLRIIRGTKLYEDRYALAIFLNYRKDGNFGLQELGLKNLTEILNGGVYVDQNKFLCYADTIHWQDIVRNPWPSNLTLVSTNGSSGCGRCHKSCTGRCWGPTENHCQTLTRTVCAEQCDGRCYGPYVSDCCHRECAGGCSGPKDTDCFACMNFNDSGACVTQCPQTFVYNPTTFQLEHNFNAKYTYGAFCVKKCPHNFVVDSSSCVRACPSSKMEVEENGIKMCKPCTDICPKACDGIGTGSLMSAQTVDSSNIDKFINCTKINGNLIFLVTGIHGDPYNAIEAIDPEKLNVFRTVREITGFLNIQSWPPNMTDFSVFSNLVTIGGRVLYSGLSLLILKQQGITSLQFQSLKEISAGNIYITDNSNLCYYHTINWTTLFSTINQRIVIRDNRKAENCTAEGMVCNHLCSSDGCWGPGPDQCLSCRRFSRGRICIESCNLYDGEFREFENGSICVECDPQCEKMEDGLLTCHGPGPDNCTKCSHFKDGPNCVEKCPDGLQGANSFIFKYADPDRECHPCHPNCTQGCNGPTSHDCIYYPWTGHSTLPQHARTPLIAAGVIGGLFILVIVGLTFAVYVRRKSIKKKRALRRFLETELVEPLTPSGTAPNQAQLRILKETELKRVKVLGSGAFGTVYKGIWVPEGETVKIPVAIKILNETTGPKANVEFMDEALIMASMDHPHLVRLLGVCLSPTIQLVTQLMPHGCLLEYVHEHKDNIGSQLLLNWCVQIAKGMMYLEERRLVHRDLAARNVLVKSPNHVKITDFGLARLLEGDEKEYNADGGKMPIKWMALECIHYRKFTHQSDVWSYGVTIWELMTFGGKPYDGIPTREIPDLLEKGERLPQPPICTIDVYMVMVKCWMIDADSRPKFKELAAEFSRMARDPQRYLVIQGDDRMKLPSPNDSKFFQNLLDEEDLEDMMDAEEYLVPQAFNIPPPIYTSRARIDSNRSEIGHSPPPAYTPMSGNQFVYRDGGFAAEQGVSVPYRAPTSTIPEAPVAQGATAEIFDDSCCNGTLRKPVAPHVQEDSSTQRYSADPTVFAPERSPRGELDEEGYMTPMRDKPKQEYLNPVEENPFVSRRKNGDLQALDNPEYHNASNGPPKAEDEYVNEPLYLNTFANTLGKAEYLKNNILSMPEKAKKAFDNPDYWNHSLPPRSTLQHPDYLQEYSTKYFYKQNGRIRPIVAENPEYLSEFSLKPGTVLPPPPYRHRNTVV

FGR (human) = FGR (human) (UniProt P09769)
RIOK1 (human) = RIOK1 (human) (UniProt Q9BRS2)
RPS6KA6 KD1 (human) = RPS6KA6 KD1 (human) (UniProt Q9UK32)
CAMK2D (human) = CAMK2D (human) (UniProt Q13557)
FGFR1 (human) = FGFR1 (human) (UniProt P11362)
SGK110 (human) = SGK110 (human) (UniProt P0C264)
ICK (human) = ICK (human) (UniProt Q9UPZ9)
MAPK9 (human) = MAPK9 (human) (UniProt P45984)
PIP4K2B (human) = PIP4K2B (human) (UniProt P78356)
PIP4K2B (human), sequence (P78356 whole entry, looked up): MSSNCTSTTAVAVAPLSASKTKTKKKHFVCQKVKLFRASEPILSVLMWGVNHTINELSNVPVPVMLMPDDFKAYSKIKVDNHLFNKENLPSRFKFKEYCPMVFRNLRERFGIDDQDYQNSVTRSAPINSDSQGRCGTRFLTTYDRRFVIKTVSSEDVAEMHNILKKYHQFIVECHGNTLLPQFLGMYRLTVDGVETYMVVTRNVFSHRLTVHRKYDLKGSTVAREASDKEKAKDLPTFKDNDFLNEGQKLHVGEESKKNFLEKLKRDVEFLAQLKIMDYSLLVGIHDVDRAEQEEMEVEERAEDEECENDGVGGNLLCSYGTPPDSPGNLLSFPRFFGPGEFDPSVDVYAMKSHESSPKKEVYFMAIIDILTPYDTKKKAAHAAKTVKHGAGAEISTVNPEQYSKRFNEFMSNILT

IKBKE (human) = IKBKE (human) (UniProt Q14164)
PLK3 (human) = PLK3 (human) (UniProt Q9H4B4)
CSNK2A1 (human) = CSNK2A1 (human) (UniProt P68400)
CSNK2A1 (human), sequence (P68400 whole entry, looked up): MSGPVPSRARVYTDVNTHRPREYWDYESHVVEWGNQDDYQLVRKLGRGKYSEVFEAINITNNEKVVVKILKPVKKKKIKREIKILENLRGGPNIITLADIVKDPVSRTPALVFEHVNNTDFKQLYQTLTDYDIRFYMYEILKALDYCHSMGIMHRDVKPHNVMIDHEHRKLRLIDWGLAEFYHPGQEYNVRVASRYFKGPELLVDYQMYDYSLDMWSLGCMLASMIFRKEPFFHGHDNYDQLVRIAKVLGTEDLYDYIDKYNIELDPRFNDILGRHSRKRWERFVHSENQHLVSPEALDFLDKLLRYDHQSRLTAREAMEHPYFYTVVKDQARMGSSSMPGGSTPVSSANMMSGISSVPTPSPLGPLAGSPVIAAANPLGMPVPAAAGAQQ

SIK2 (human) = SIK2 (human) (UniProt Q9H0K1)
CSNK1D (human) = CSNK1D (human) (UniProt P48730)
TESK1 (human) = TESK1 (human) (UniProt Q15569)
TESK1 (human), sequence (Q15569 whole entry, looked up): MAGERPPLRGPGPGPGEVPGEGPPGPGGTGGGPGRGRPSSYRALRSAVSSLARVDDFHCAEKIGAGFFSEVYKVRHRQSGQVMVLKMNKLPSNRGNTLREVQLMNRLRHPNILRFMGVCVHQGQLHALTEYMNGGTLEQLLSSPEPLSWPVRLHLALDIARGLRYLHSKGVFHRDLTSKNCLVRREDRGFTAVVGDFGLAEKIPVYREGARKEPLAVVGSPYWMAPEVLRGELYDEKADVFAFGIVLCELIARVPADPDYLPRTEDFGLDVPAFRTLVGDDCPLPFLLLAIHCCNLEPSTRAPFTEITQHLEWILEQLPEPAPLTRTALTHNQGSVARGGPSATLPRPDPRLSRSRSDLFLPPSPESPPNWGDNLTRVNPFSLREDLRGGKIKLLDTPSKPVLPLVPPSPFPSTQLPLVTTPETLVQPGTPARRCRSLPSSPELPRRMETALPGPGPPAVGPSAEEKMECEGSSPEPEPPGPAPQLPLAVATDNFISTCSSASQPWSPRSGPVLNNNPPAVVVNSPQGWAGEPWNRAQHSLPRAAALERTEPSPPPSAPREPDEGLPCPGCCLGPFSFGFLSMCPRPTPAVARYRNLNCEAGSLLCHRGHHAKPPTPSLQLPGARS

MELK (human) = MELK (human) (UniProt Q14680)
MUSK (human) = MUSK (human) (UniProt O15146)
STK17B (human) = STK17B (human) (UniProt O94768)
MAPKAPK2 (human) = MAPKAPK2 (human) (UniProt P49137)
NUAK1 (human) = NUAK1 (human) (UniProt O60285)
TNK1 (human) = TNK1 (human) (UniProt Q13470)
SRMS (human) = SRMS (human) (UniProt Q9H3Y6)
SRMS (human), sequence (Q9H3Y6 whole entry, looked up): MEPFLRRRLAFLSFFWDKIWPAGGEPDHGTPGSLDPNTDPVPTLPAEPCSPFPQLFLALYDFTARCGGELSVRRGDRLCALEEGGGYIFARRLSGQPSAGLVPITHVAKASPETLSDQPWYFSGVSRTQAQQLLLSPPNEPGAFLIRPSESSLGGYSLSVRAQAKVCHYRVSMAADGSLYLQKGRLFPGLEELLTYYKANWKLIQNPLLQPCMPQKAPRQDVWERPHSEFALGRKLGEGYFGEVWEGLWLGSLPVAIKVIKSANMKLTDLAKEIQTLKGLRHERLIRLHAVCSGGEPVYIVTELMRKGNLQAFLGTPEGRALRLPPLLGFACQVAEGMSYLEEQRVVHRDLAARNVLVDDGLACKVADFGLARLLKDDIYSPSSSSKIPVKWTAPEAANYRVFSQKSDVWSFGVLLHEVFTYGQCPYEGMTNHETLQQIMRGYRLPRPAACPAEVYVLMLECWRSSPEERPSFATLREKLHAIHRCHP

TIE1 (human) = TIE1 (human) (UniProt P35590)
NTRK3 (human) = NTRK3 (human) (UniProt Q16288)
RIOK3 (human) = RIOK3 (human) (UniProt O14730)
RIOK3 (human), sequence (O14730 whole entry, looked up): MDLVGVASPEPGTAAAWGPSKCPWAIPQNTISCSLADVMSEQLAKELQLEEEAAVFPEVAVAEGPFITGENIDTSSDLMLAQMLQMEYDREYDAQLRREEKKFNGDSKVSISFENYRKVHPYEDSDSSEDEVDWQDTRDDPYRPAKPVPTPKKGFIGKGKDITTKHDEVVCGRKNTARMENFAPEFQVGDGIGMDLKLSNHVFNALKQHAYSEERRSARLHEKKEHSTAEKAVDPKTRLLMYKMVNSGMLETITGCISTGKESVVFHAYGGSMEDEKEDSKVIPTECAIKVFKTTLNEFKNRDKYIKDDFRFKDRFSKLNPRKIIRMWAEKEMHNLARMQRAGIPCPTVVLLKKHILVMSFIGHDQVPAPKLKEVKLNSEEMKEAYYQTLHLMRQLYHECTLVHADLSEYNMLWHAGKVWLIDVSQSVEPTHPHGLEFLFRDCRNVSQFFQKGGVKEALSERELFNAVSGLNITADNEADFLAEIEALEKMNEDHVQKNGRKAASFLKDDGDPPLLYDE

[1] = tested on: ABL1 (human), P00519 [M351T]
[2] = tested on: EGFR (human), P00533 [G719C]
PDGFRA (human) = PDGFRA (human) (UniProt P16234)
NEK9 (human) = NEK9 (human) (UniProt Q8TD19)
[3] = tested on: ABL1 (human), P00519 [F317L]
AXL (human) = AXL (human) (UniProt P30530)
[4] = tested on: FLT3 (human), P36888 [ITD]
PRPF4B (human) = PRPF4B (human) (UniProt Q13523)

STK35 (human), sequence (Q8TDR2 whole entry, looked up): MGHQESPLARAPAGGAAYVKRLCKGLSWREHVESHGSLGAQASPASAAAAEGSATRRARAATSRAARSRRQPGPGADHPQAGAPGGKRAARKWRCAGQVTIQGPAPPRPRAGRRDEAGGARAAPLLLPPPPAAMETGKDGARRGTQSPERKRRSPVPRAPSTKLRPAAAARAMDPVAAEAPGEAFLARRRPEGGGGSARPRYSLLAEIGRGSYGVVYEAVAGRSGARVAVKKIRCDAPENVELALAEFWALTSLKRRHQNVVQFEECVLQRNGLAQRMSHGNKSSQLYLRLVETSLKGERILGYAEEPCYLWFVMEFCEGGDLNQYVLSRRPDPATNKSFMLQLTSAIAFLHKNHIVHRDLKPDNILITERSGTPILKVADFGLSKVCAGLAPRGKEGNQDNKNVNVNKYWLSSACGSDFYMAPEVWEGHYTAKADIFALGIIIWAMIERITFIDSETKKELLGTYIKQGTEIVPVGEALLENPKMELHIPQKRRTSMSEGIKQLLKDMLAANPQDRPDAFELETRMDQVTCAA
CDKL3 (human), sequence (Q8IVW4 whole entry, looked up): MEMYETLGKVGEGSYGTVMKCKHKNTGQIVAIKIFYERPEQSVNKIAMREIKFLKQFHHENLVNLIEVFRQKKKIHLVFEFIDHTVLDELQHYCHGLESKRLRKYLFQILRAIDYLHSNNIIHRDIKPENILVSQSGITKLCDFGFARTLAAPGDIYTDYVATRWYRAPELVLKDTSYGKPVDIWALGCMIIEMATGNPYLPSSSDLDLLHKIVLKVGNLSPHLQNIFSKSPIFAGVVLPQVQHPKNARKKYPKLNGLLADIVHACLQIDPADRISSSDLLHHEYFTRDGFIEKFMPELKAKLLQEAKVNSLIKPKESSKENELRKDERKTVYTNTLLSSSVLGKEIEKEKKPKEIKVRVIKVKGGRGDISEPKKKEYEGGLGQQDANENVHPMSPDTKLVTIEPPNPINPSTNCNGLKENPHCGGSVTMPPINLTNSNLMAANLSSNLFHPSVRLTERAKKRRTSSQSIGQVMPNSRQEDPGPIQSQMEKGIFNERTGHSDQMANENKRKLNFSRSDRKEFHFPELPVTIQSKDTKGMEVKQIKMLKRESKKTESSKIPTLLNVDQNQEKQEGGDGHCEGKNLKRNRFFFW

inhibition of binding (CDKL3 (human)): 0%
inhibition of binding (BMX (human)): 14%
inhibition of binding (TNIK (human)): 1%
inhibition of binding (DAPK2 (human)): 13%
inhibition of binding (STK35 (human)): 0%
inhibition of binding (CSNK1G1 (human)): 25%
inhibition of binding (ERBB4 (human)): 7%
inhibition of binding (FGR (human)): 0%
inhibition of binding (RIOK1 (human)): 11%
inhibition of binding (RPS6KA6 KD1 (human)): 0%
inhibition of binding (CAMK2D (human)): 0%
inhibition of binding (FGFR1 (human)): 0%
inhibition of binding (SGK110 (human)): 3%
inhibition of binding (ICK (human)): 0%
inhibition of binding (MAPK9 (human)): 0%
inhibition of binding (PIP4K2B (human)): 0%
inhibition of binding (IKBKE (human)): 0%
inhibition of binding (PLK3 (human)): 0%
inhibition of binding (CSNK2A1 (human)): 0%
inhibition of binding (SIK2 (human)): 0%
inhibition of binding (CSNK1D (human)): 27%
inhibition of binding (TESK1 (human)): 0%
inhibition of binding (MELK (human)): 0%
inhibition of binding (MUSK (human)): 0%
inhibition of binding (STK17B (human)): 0%
inhibition of binding (MAPKAPK2 (human)): 0%
inhibition of binding (NUAK1 (human)): 42%
inhibition of binding (TNK1 (human)): 10%
inhibition of binding (SRMS (human)): 0%
inhibition of binding (TIE1 (human)): 0%
inhibition of binding (NTRK3 (human)): 0%
inhibition of binding (RIOK3 (human)): 0%
inhibition of binding [1]: 0%
inhibition of binding [2]: 4%
inhibition of binding (PDGFRA (human)): 11%
inhibition of binding [3]: 0%
inhibition of binding (AXL (human)): 7%
inhibition of binding [4]: 0%
inhibition of binding (PRPF4B (human)): 4%
SMILES: Nc1cc(C(F)(F)F)c(-c2cc(N3CCOCC3)nc(N3CCOCC3)n2)cn1
inhibition of binding (NEK9 (human)): 0%
